Consider 1 compound from patent US10464901B2, “Composition including benzene diamine derivative for preventing or treating degenerative brain diseases” (UNIST(ULSAN NATIONAL INSTITUTE OF SCIENCE AND TECHNOLOGY), priority 2017, dated 2019).

In series [1] the test system is Cu(II)-Aβ. The series can be described thus: Aβ aggregation inhibition, gel electrophoresis and Western blotting with anti-Aβ antibody (6E10). It counts as biochemical. The text has this:
It was examined whether the benzene diamine derivatives of the present disclosure have inhibitory effects on Aβ aggregation. Aβ has two isoforms, and therefore, effects on Aβ40 and Aβ42 were examined, respectively. When metals are involved in protein folding, the probability of abnormal folding is high. In this case, the probability of Aβ aggregate formation is further increased.
In order to perform molecular analysis of Aβ aggregation-inhibitory effects of the benzene diamine derivatives of the present disclosure, gel electrophoresis and Western blotting were performed by using anti-Aβ antibody (6E10). As a control group, compound 1
In detail, each sample (10 μl) was separated on a 10-20% Tris-tricine gel (Invitrogen, Grand Island, N.Y., USA). After separation, the proteins were transferred onto a nitrocellulose membrane and blocked with bovine serum albumin (BSA, 3% w/v, Sigma-Aldrich, St Louis, Mo., USA) in Tris-buffered saline (TBS) containing 0.1% Tween-20 (TBS-T) at room temperature for 2 hours or at 4° C. overnight. The membrane was incubated in a 2% BSA (w/v in TBS-T) solution, together with anti-Aβ antibody (6E10, 1:2,000, Covance, Princeton, N.J., USA), at room temperature for 4 hours or at 4° C. overnight. The membrane was washed with TBS-T (3×, 10 min), and a secondary mouse antibody (1:5,000 in 2% BSA w/v in TBS-T; Cayman Chemical Company, Ann Arbor, Mich., USA) was added thereto, followed by incubation at room temperature for 1 hour. Thermo Scientific SuperSignal West Pico Chemiluminescent Substrate (Thermo Scientific, Rockford, Ill., USA), Biosesang ECL Plus kit (Biosesang, Gyeonggi-do, Republic of Korea), or homemade ECL kit53 were used for visualization, and ChemiDoc MP Imaging System (Bio-Rad, Hercules, Calif., USA) was used for detection.

Series [2] has as its system APP/PS/Tau dementia mouse model. The series can be described thus: Morris water maze test, memory capacity of dementia mouse model. It counts as in vivo. As to conditions: oral 100 μg/kg twice a week for 2 months. The protocol:
In order to investigate enhancement of spatial cognition and memory in dementia mouse models by the benzene diamine derivatives of the present disclosure, a Morris water maze (Harvard Apparatus, USA) test was performed.
In detail, a water maze composed of a stainless steel pool with a diameter of 150 cm×a height of 60 cm and an escape platform (10 cm in diameter, 30 cm in height) was filled with water at 22±2° C., and the height was 2 cm above the platform such that when a mouse sat on the escape platform, the body was allowed to come out of the water. […] Escape latency was measured as the time taken for the experimental animal to go to the escape platform when the experimental animal went to the escape platform and stayed thereon for more than 20 seconds. This test was performed three times a day, and a mean value was determined as mean escape latency. The escape latency was recorded on the computer program (Smart Video Tracking System V3.0, PanLab SL, Barcelona, Spain) by installing a camera on the ceiling above the water tank. The experiment was performed three times a day for 6 days, and at this time, the possibility of accidentally visiting the escape platform was minimized by sequentially changing the positions of the experimental animals in the water tank. In the experiment, a normal mouse, a control dementia mouse administered with a vehicle (PBS) and an experimental dementia mouse administered with 100 μg/kg of N^1-(pyridin-2-ylmethypenzene-1,4-diamine (Compound 2) twice a week for 2 months were used after completing administration, as in Experimental Example 1.

Series [3] has as its target T1, oligomeric Aβ42 (Homo sapiens, UniProt P05067).
T1 construct: from tissue; host or cells: brain of dementia mouse models
The series can be described thus: Brain tissue immunohistofluorescence, oligomeric Aβ. It counts as in vivo, mouse. As to conditions: oral 100 μg/kg twice a week for 2 months, confocal, FIG. 8. The method, then: Oligomeric Aβ formation in the brain tissue may cause neuronal cell death by neuronal cytotoxicity, which may cause dementia. Therefore, anatomical analysis of the brain tissue was performed to examine whether the benzene diamine derivatives of the present disclosure inhibit neuronal cytotoxicity by oligomeric Aβ in dementia mouse models.
In detail, as in Experimental Example 7-1, the dementia mouse models were prepared and their brain tissues were stained. Anti-oligomeric Aβ primary antibody (ab126892, Abcam, Eugene, USA) labeled with QD525 probe (red fluorescence) was used to examine changes in the quantity of oligomeric Aβ42. Further, to measure changes of plaques, the tissues were stained with a fluorescent staining reagent MX04 (blue) and incubated at 4° C. for 12 hours. Thereafter, the tissues were observed under a confocal microscope at 0.5×10.

The subject of series [4] is Aβ aggregates. The experiment in a line: Brain tissue staining of Aβ aggregates with Thioflavin T. As to conditions: oral 100 μg/kg twice a week for 2 months, confocal, FIG. 9. The format is in vivo, mouse. The method, then: Like oligomeric Aβ, Aβ aggregates in the brain tissue may cause neuronal cell death by neuronal cytotoxicity, which may cause dementia. Therefore, anatomical analysis of the brain tissue was performed to examine whether the benzene diamine derivatives of the present disclosure inhibit neuronal cytotoxicity by Aβ aggregates in dementia mouse models.
In detail, as in Experimental Example 7-1, the dementia mouse models were prepared and their brain tissues were stained. Aβ aggregates in the brain tissue were labeled with Thioflavin T (ThT, Sigma-Aldrich) (green fluorescence), plaques were stained with a fluorescent staining reagent MX04 (blue), and incubated at 4° C. for 12 hours. Thereafter, the tissues were observed under a confocal microscope at 0.5×10.

Series [5] is described as follows: PAMPA-BBB analysis. The format is in vitro ADME. The method, then: […] PAMPA-BBB analysis was performed by using a PAMPA Explorer kit (pION, Inc. Billerica, Mass., USA) according to the manufacture's protocol with slight modifications. […] The prepared solution was put in each well of a donor plate (200 μl, repeated 12 times). A polyvinylidene fluoride (PVDF, […]) filter membrane on an acceptor plate was coated with BBB-1 lipid formulation (5 μl, pION). The acceptor plate was placed on top of the donor plate to generate a “sandwich”. Brain sink buffer (BSB, 200 μl, pION) was added to each well of the acceptor plate. The sandwich-shaped plate was incubated for 4 hours at room temperature without stirring. UV-vis spectra of the solutions in the reference, acceptor, and donor plates were measured using a microplate reader. A PAMPA Explorer software [v. 3.8 (pION)] was used to calculate the −log Pe values for compounds. CNS±designations were assigned by comparison with compounds that were identified in previous reports.

T1 sequence (P05067 672-713 limits assumed): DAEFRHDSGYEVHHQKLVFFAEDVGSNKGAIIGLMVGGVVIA

With `Nc1ccc(NCc2ccccn2)cc1` [Compound 2, N^1-(pyridin-2-ylmethyl)benzene-1,4-diamine], the “Cu(II)-Aβ (inhibitory effect on Aβ aggregation)” value in series [1] (Table 1 summary of Example 2, symbols not defined) is given as “◯”. The “Cu(II)-Aβ-inhibitory effect” value in series [1] (two kinds of Aβ, FIG. 1) is recorded as “very excellent Cu(II)-Aβ-inhibitory effect on two kinds of Aβ”. Also, in series [2] (AD mice), the “difference in mean escape latency vs control group at 4 days” value came out at 16 s, the “difference in mean escape latency vs dementia group at 5 days” value came out at 19 s, the “mean escape latency at 4 days” value stood at 26 ± 1 s and the “mean escape latency at 5 days” value was found to be 24 ± 1 s. The “mean escape latency at 3 days (worded)” value in series [2] (vs dementia control group, FIG. 5) is given as “significantly short mean escape latency”. For the same compound, in series [3], the “oligomeric Aβ in brain” value is “oligomeric Aβ was hardly observed”. In series [4], the “Aβ aggregates (ThT) in brain” value is given as “Aβ aggregates were hardly observed”. Also, the PAMPA-BBB permeability class entry in series [5] (50 μM, incubation 4 hrs, U.V) is listed as “High”. The Papp at 4 h, 50 μM in series [5] (PAMPA, pH 7.4, 50 μM, incubation 4 hrs, U.V, read-out: Pe) was 12.5 ×10⁻⁶ cm/s. Moreover, the “CNS± designation” value in series [5] (assigned by comparison with compounds identified in previous reports) is given as “(CNS+)”.
